Tested on: tau tangles/Aβ plaques on AD brain sections
Assay: Assay 1: direct staining of human Alzheimer's disease brain sections (fluorescence)
Format: binding
Parameters: key to Direct staining of tau tangles/Aβ plaques on AD brain sections at 100 μM / Direct staining of tau tangles on AD brain sections at 100 μM / Direct staining of Aβ plaques on AD brain sections at 100 μM / Direct staining of tau tangles on AD brain sections (footnote a: at 250 μM): − (No); +++ (strong); ++ (good); + (weak)
Protocol: Assay 1 (Fluorescence Based Assay):
Direct Binding of Compounds of this Invention to Human Alzheimer's Disease Brain Sections and/or Displacement of RefA and Compound B
Frozen sections with a thickness of […] from the amygdala of donors diagnosed with Braak stage V-VI Alzheimer's Disease (Braak, H.; Braak, E. Acta Neuropathol., 1991, 82, 239-259), were purchased from a commercial provider (Tissue Solutions) and kept at −80° C. until use.
Direct Staining of Human Alzheimer's Disease Brain Sections
Brain sections were encircled with pap pen liquid blocker to reduce the volume of solution for the different incubations. Sections were fixed for 15 min at 4° C. with 4% paraformaldehyde and washed three times 5 minutes with PBS at room temperature. […] To reduce the auto-fluorescence of the tissue, the sections were incubated in a solution of 0.1% Sudan Black (Sigma 199664) in 70% ethanol for 15 min at room temperature in the dark, washed four times for 5 minutes with PBS, and mounted using ProLong Gold Antifade reagent (Invitrogen P36930). Sections were then analyzed on the Nikon Eclipse Ti microscope to detect staining and imaged using Nikon DS-Fi2 camera and NIS-Element AR4.13.1 software.

[1] = 100 μM compound, human AD brain sections, fluorescence, cell does not say tangles or plaques

Cn1c2c(c3ccc(Nc4ccc(F)c(F)c4)nc31)C(=O)N(CCCN)CC2 [213 Step F]
Direct staining of tau tangles/Aβ plaques on AD brain sections at 100 μM (100 μM in 50% ethanol, 20 min, "(tangles)" beside the symbol = tangles stained): −

COc1ccc(/C=C/c2ccc3nc(N4CCOCC4)sc3c2)cc1 [Compound B, reference compound]
Direct staining of Aβ plaques on AD brain section (100 μM, FIG. 2): Direct staining of Aβ plaques

Cn1c2ccncc2c2ccc(Nc3ccc(F)cc3)nc21 [Example 18]
Direct staining of tau tangles/Aβ plaques on AD brain sections at 100 μM [1]: −

Cn1c2ccncc2c2ccc(Nc3ccc(OCCF)cc3)nc21 [Example 20]
Direct staining of Aβ plaques on AD brain sections at 100 μM (100 μM compound): + (plaques)

Cn1c2ccncc2c2ccc(Nc3ccc(C#N)c(OCCF)c3)nc21 [Example 21]
Direct staining of tau tangles/Aβ plaques on AD brain sections at 100 μM [1]: −

Cn1c2ccncc2c2ccc(Nc3ccc(F)nc3)nc21 [Example 22]
Direct staining of Aβ plaques on AD brain sections at 100 μM (100 μM compound): + (tangles) + (plaques | Direct staining of tau tangles on AD brain sections at 100 μM (100 μM compound): + (tangles) + (plaques

COc1cc(Nc2ccc3c4cnccc4n(C)c3n2)ccn1 [Example 24]
Direct staining of Aβ plaques on AD brain sections at 100 μM (100 μM compound): + (plaques)

Cn1c2ccncc2c2ccc(N3CCN(c4ccc(F)cc4)CC3)nc21 [Example 25]
Direct staining of Aβ plaques on AD brain sections at 100 μM (100 μM compound): + (tangles) + (plaques) | Direct staining of tau tangles on AD brain sections at 100 μM (100 μM compound): + (tangles) + (plaques)

CN(CCF)c1cccc(Nc2ccc3c4cnccc4n(C)c3n2)c1 [Example 26]
Direct staining of Aβ plaques on AD brain sections at 100 μM (100 μM compound): +++ (plaques)

Fc1ccc(Nc2ccc3c(n2)[nH]c2ccncc23)cc1F [Example 27]
Direct staining of Aβ plaques on AD brain sections at 100 μM (100 μM compound): + (tangles) + (plaques) | Direct staining of tau tangles on AD brain sections at 100 μM (100 μM compound): + (tangles) + (plaques)

Cn1c2ccncc2c2ccc(Nc3cncc(F)c3)nc21 [Example 29]
Direct staining of tau tangles on AD brain sections at 100 μM (100 μM compound): + (tangles)

COc1ccc(Nc2ccc3c4cnccc4n(C)c3n2)cc1F [Example 30]
Direct staining of Aβ plaques on AD brain sections at 100 μM (100 μM compound): + (tangles) + (plaques) | Direct staining of tau tangles on AD brain sections at 100 μM (100 μM compound): + (tangles) + (plaques)

COc1cc(Nc2ccc3c4cnccc4n(C)c3n2)ccc1F [Example 31]
Direct staining of Aβ plaques on AD brain sections at 100 μM (100 μM compound): + (tangles) + (plaques) | Direct staining of tau tangles on AD brain sections at 100 μM (100 μM compound): + (tangles) + (plaques)

Cn1c2ccncc2c2ccc(Nc3cccc(N4CC(F)C4)c3)nc21 [Example 32]
Direct staining of Aβ plaques on AD brain sections at 100 μM (100 μM compound): + (tangles) + (plaques) | Direct staining of tau tangles on AD brain sections at 100 μM (100 μM compound): + (tangles) + (plaques)

Cn1c2ccncc2c2ccc(Nc3cccc(N4CCC(F)CC4)c3)nc21 [Example 33]
Direct staining of Aβ plaques on AD brain sections at 100 μM (100 μM compound): + (tangles) + (plaques) | Direct staining of tau tangles on AD brain sections at 100 μM (100 μM compound): + (tangles) + (plaques)

Cc1ccc(Nc2ccc3c4cnccc4n(C)c3n2)cc1OCCF [Example 34]
Direct staining of tau tangles on AD brain sections at 100 μM (100 μM compound): +++ (tangles)

Cn1c2ccncc2c2ccc(Nc3cccc(C(F)F)c3)nc21 [Example 35]
Direct staining of Aβ plaques on AD brain sections at 100 μM (100 μM compound): ++ (tangles) ++ (plaques) | Direct staining of tau tangles on AD brain sections at 100 μM (100 μM compound): ++ (tangles) ++ (plaques)

Cc1ccc(Nc2ccc3c4cnccc4n(C)c3n2)cc1OC(F)F [Example 36]
Direct staining of Aβ plaques on AD brain sections at 100 μM (100 μM compound): + (plaques)

Fc1ccc(Nc2ccc3c(c2)[nH]c2ccncc23)cc1F [Example 37]
Direct staining of tau tangles on AD brain sections at 100 μM (100 μM compound): + (tangles)

Cn1c2ccncc2c2ccc(Nc3ccc(F)c(F)c3)cc21 [Example 39]
Direct staining of tau tangles on AD brain sections at 100 μM (100 μM compound): ++ (tangles)

CN(C)c1cc(Nc2ccc3c4cnccc4n(C)c3n2)ccc1F [Example 41]
Direct staining of tau tangles/Aβ plaques on AD brain sections at 100 μM [1]: −

CNc1cc(Nc2ccc3c4cnccc4n(C)c3n2)ccc1F [Example 42]
Direct staining of Aβ plaques on AD brain sections at 100 μM (100 μM compound): +++ (plaques)

Cn1c2ccncc2c2ccc(Nc3cccc(SCCF)c3)nc21 [Example 43]
Direct staining of Aβ plaques on AD brain sections at 100 μM (100 μM compound): + (tangles) + (plaques) | Direct staining of tau tangles on AD brain sections at 100 μM (100 μM compound): + (tangles) + (plaques)

Cc1nn(CCF)c(C)c1Nc1ccc2c3cnccc3n(C)c2n1 [Example 49]
Direct staining of tau tangles on AD brain sections at 100 μM (100 μM compound): + (tangles)

Cn1c2ccncc2c2ccc(Nc3ccc(OCCF)nc3)nc21 [Example 50]
Direct staining of Aβ plaques on AD brain sections at 100 μM (100 μM compound): + (tangles) + (plaques) | Direct staining of tau tangles on AD brain sections at 100 μM (100 μM compound): + (tangles) + (plaques)

Cn1c2ccncc2c2ccc(Nc3cccc(OCCOCCF)n3)nc21 [Example 56]
Direct staining of tau tangles on AD brain sections at 100 μM (100 μM compound): ++ (tangles)

Cn1c2ccncc2c2ccc(Nc3ccc(F)c(OCCF)c3)nc21 [Example 57]
Direct staining of tau tangles on AD brain sections at 100 μM (100 μM compound): ++ (tangles)

Cn1c2ccncc2c2ccc(Nc3ccnc(OCCF)c3)nc21 [Example 58]
Direct staining of Aβ plaques on AD brain sections at 100 μM (100 μM compound): +++ (plaques)

Cn1c2ccncc2c2ccc(Nc3cccc(OCCOCCOCCF)n3)nc21 [Example 60]
Direct staining of Aβ plaques on AD brain sections at 100 μM (100 μM compound): ++ (tangles) ++ (plaques) | Direct staining of tau tangles on AD brain sections at 100 μM (100 μM compound): ++ (tangles) ++ (plaques)

Cn1c2ccncc2c2ccc(Nc3ncc(C#N)s3)nc21 [Example 61]
Direct staining of tau tangles/Aβ plaques on AD brain sections at 100 μM [1]: −

Cn1c2ccncc2c2ccc(Nc3ccc(OCCF)cn3)nc21 [Example 62]
Direct staining of tau tangles on AD brain sections at 100 μM (100 μM compound): + (tangles)

Cn1c2ccncc2c2ccc(Nc3csc(OCCF)n3)nc21 [Example 69]
Direct staining of tau tangles on AD brain sections at 100 μM (100 μM compound): ++ (tangles)

Cn1c2ccncc2c2ccc(Nc3cccc(NCCF)c3)nc21 [Example 71]
Direct staining of Aβ plaques on AD brain sections at 100 μM (100 μM compound): + (tangles) + (plaques) | Direct staining of tau tangles on AD brain sections at 100 μM (100 μM compound): + (tangles) + (plaques)

Cn1c2ccncc2c2ccc(Nc3ccc(NCCF)cn3)nc21 [Example 79]
Direct staining of tau tangles/Aβ plaques on AD brain sections at 100 μM [1]: −

CN1CCc2c(c3ccc(Nc4cccc(NCCF)n4)nc3n2C)C1=O [Example 81]
Direct staining of tau tangles/Aβ plaques on AD brain sections at 100 μM [1]: −

Cn1c2c(c3ccc(Nc4ccc(NCCF)cn4)nc31)C(=O)NCC2 [Example 82]
Direct staining of tau tangles on AD brain sections at 100 μM (100 μM compound): + (tangles)

CN1CCc2c(c3ccc(Nc4ccc(NCCF)cn4)nc3n2C)C1=O [Example 83]
Direct staining of tau tangles on AD brain sections at 100 μM (100 μM compound): + (tangles)

CN1CCc2c(c3ccc(Nc4cccc(NCCF)c4)nc3n2C)C1=O [Example 84]
Direct staining of tau tangles/Aβ plaques on AD brain sections at 100 μM [1]: −

Cn1c2ccncc2c2ccc(Nc3cncc(OCCCF)c3)nc21 [Example 97]
Direct staining of tau tangles on AD brain sections at 100 μM (100 μM compound): +++ (tangles)

Cn1c2ccncc2c2ccc(Nc3ccc(F)c([N+](=O)[O-])c3)nc21 [Example 98]
Direct staining of tau tangles/Aβ plaques on AD brain sections at 100 μM [1]: −

Cn1c2ccncc2c2ccc(Nc3ccc([N+](=O)[O-])c(F)c3)nc21 [Example 99]
Direct staining of tau tangles/Aβ plaques on AD brain sections at 100 μM [1]: −

Cn1c2ccncc2c2ccc(Nc3cc(CCF)ccn3)nc21 [Example 148]
Direct staining of tau tangles on AD brain sections at 100 μM (100 μM compound): ++ (tangles)

Cn1c2ccncc2c2ccc(Nc3cccc(CCF)n3)nc21 [Example 149]
Direct staining of tau tangles on AD brain sections at 100 μM (100 μM compound): ++ (tangles)

Cn1c2ccncc2c2ccc(N3CCC[C@H](F)C3)nc21 [Example 158]
Direct staining of tau tangles on AD brain sections at 100 μM (100 μM compound): ++ (tangles)

Cn1c2ccncc2c2ccc(N3CC[C@H](F)C3)nc21 [Example 160]
Direct staining of tau tangles/Aβ plaques on AD brain sections at 100 μM [1]: −

Cn1c2cccnc2c2ccc(Nc3cccc(OCCF)c3)nc21 [Example 163]
Direct staining of tau tangles on AD brain sections at 100 μM (100 μM compound): ++ (tangles)

FCCN(c1ccc(F)c(F)c1)c1ccc2c3cnccc3n(CCF)c2n1 [Example 164]
Direct staining of Aβ plaques on AD brain sections at 100 μM (100 μM compound): + (plaques)

OCCn1c2ccncc2c2ccc(Nc3cccc(OCCF)c3)nc21 [Example 165]
Direct staining of tau tangles/Aβ plaques on AD brain sections at 100 μM [1]: −

OCCn1c2ccncc2c2ccc(Nc3ccc(F)c(F)c3)nc21 [Example 166]
Direct staining of tau tangles/Aβ plaques on AD brain sections at 100 μM [1]: −

COCCOCCn1c2ccncc2c2ccc(Nc3cccc(OCCF)c3)nc21 [Example 167]
Direct staining of tau tangles/Aβ plaques on AD brain sections at 100 μM [1]: −

Cn1c2c(c3ccc(Nc4ccc(N5CCOCC5)cc4)nc31)C(=O)NCC2 [Example 173]
Direct staining of tau tangles/Aβ plaques on AD brain sections at 100 μM [1]: −

Cn1c2c(c3ccc(Nc4ccc(C#N)c(OCCF)c4)nc31)C(=O)NCC2 [Example 176]
Direct staining of tau tangles/Aβ plaques on AD brain sections at 100 μM [1]: −

Cn1c2c(c3ccc(Nc4ccc(OCCF)cc4)nc31)C(=O)NCC2 [Example 177]
Direct staining of tau tangles/Aβ plaques on AD brain sections at 100 μM [1]: −
